The results in this text go back to US12264156B2, “Compounds and pharmaceutical compositions thereof for the treatment of diseases” (GALAPAGOS NV, priority 2018, dated 2025).

Where only a bound is given, the exact number is not on record here.

Holding throughout (type): biochemical
Common to all, as to conditions: ADP-Glo SIK kinase assay
(In general: ADP-Glo first removes unused ATP, then detects ADP through luciferase.)

One experiment concerns the target T1, SIK2 (Homo sapiens, UniProt Q9H0K1).
T1 construct: purchased ThermoFisher Scientific PV4792
Briefly: ADP-Glo kinase assay, SIK2. The gist of the method: (§1)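 ADP-Glo, RT throughout. Enz/substrate + ATP, 120 min; ADP-Glo reagent 40 min (ATP depletion); detection reagent 30 min; luminescence read. Neg ctrl 1% DMSO, pos ctrl 10 μM staurosporine, final concs.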

A further experiment deals with T2, SIK3 (Homo sapiens, UniProt Q9Y2K2).
T2 construct: purchased SignalChem S12-11G-100
T2 sequence (Q9Y2K2 whole entry): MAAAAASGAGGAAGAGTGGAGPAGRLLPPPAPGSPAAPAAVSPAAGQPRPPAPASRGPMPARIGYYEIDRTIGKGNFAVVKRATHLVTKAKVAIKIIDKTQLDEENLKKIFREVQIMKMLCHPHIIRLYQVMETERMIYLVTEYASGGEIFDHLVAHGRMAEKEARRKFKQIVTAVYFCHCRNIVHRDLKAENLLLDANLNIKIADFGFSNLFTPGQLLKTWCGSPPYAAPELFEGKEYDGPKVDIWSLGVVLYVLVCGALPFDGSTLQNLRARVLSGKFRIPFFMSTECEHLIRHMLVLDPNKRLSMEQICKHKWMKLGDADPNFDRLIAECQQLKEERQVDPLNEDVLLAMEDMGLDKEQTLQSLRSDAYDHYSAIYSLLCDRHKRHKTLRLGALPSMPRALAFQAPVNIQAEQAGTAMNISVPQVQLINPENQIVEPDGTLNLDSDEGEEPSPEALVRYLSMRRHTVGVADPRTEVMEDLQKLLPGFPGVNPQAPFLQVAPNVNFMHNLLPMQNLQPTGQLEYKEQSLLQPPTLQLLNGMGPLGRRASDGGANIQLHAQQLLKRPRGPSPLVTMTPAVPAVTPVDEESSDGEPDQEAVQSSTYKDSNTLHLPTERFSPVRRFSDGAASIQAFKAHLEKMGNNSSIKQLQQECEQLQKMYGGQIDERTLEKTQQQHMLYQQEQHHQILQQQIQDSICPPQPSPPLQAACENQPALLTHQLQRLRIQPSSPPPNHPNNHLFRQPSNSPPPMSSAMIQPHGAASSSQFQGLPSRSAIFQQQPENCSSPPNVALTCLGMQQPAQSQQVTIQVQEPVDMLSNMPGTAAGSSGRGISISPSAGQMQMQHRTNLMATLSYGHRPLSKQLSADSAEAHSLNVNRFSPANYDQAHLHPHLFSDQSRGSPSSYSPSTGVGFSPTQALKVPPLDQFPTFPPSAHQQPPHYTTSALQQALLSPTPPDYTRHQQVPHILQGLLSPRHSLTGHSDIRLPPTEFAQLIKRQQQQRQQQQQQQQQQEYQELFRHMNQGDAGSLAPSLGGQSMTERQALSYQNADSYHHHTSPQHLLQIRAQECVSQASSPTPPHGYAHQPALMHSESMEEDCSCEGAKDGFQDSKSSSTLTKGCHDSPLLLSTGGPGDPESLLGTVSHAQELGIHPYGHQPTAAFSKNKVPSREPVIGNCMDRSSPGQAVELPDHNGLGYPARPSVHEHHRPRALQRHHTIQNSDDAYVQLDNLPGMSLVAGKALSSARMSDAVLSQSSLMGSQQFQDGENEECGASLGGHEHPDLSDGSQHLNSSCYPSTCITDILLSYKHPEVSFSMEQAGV
Briefly: ADP-Glo kinase assay, SIK3. The gist of the method: as §1

A further experiment has as its target T3, SIK1 (Homo sapiens, UniProt P57059).
T3 construct: purchased Carna Biosciences 02-131
As to the kind of experiment: ADP-Glo kinase assay, SIK1. Summed up:
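Enzyme–substrate mix was started with ATP and incubated 120 min at RT. ADP formed was quantified by ADP-Glo: 40 min ATP depletion, then 30 min detection reagent converting ADP to ATP for luciferase luminescence, which rises with kinase activity. Controls: 1% DMSO and 10 μM staurosporine (final).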

T1 sequence (Q9H0K1 whole entry): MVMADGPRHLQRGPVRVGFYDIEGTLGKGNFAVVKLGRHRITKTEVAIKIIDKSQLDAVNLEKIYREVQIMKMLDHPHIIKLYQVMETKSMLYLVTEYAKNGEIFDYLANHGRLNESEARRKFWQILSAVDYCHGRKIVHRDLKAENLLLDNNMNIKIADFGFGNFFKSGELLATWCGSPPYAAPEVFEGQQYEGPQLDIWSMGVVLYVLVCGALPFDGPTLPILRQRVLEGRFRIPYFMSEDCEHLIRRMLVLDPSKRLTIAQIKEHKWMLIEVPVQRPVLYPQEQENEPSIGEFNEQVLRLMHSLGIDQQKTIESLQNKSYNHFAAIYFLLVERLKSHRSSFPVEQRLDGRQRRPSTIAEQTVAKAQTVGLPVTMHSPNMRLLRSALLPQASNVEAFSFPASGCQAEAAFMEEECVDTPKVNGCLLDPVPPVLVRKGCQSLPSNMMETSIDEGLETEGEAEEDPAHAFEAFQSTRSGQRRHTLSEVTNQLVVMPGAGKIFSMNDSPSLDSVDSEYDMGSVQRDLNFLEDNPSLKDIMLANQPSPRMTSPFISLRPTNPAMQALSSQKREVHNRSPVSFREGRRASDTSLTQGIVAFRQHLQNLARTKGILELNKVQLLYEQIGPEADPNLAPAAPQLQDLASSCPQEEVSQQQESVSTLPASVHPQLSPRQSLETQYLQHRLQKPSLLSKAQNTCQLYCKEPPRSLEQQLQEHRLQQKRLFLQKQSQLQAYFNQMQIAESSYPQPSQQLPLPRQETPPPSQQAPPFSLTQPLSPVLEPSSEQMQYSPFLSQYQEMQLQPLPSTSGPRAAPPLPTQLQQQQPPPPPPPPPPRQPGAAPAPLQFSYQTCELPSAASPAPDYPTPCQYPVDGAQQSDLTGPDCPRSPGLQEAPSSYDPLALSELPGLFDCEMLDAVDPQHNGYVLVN
T3 sequence (P57059 whole entry): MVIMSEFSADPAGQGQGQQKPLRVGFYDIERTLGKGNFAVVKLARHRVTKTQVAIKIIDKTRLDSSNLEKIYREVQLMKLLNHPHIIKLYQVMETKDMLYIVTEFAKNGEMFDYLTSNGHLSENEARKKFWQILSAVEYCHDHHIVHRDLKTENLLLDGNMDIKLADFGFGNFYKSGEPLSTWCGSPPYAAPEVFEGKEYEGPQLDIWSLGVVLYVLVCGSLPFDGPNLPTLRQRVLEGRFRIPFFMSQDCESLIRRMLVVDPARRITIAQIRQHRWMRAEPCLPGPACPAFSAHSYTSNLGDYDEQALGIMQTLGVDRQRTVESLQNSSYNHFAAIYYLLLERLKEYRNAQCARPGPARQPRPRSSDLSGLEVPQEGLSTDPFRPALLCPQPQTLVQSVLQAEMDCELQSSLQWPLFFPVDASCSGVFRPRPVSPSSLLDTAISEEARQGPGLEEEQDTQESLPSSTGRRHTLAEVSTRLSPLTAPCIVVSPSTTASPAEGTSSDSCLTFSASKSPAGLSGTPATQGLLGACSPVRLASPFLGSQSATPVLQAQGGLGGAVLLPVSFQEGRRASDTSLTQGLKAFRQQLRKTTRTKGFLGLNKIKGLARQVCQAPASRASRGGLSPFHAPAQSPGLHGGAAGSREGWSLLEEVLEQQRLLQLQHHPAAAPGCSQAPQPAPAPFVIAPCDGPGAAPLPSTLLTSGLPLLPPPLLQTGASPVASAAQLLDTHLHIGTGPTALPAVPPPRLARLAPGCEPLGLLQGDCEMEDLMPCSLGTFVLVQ

As for `COc1cc(-c2cnc3cc(OCCCN4CCc5ncccc5C4)ccn23)cc(OC(F)F)c1C(=O)NC1CC1` [compound 311, N-cyclopropyl-2-(difluoromethoxy)-4-[7-[3-(7,8-dihydro-5H-1,6-naphthyridin-6-yl)propoxy]imidazo[1,2-a]pyridin-3-yl]-6-methoxy-benzamide], the figures for the IC50 at SIK2, at SIK3 and at SIK1 were 0.01 to 10 nM, 0.01 to 10 nM and 10 to 100 nM, respectively.

Regarding `COc1cc(-c2cnc3cc(OCCN4CCN(CCO)CC4)ccn23)cc(OC(F)F)c1C(=O)NC1CC1` [compound 308, N-cyclopropyl-2-(difluoromethoxy)-4-[7-[2-[4-(2-hydroxyethyl)piperazin-1-yl]ethoxy]imidazo[1,2-a]pyridin-3-yl]-6-methoxy-benzamide], the IC50 at SIK2 was 0.01 to 10 nM; on SIK3 it was 0.01 to 10 nM; against SIK1, 10 to 100 nM.

For the compound `COc1cc(-c2cnc3cc(OCCN4CCOC(C(F)(F)F)C4)ccn23)cc(OC(F)F)c1C(=O)NC1CC1` (stereo not drawn) [compound 179, N-cyclopropyl-2-(difluoromethoxy)-6-methoxy-4-[7-[2-[2-(trifluoromethyl)morpholin-4-yl]ethoxy]imidazo[1,2-a]pyridin-3-yl]benzamide], the IC50 was in the range of 0.01 to 10 nM on SIK2, 0.01 to 10 nM at SIK3 and 10 to 100 nM against SIK1.

With `COc1cc(-c2cnc3cc(OCCN4CCCC4=O)ccn23)cc(OC(F)F)c1C(=O)NC1CC1` [compound 63, N-cyclopropyl-2-(difluoromethoxy)-6-methoxy-4-[7-[2-(2-oxopyrrolidin-1-yl)ethoxy]imidazo[1,2-a]pyridin-3-yl]benzamide], the IC50 at SIK2, against SIK3 and at SIK1 was 0.01 to 10 nM throughout.

Turning to `COc1cc(-c2cnc3cc(OCC(C)(C)CO)ccn23)cc(OC(F)F)c1C(=O)NC1CC1` [compound 74, N-cyclopropyl-2-(difluoromethoxy)-4-[7-(3-hydroxy-2,2-dimethyl-propoxy)imidazo[1,2-a]pyridin-3-yl]-6-methoxy-benzamide], the IC50 on SIK2 is 0.01 to 10 nM; on SIK3, 0.01 to 10 nM; at SIK1, 10 to 100 nM.

On to `COc1cc(-c2cnc3cc(OC4CC(C#N)C4)ccn23)cc(OC(F)F)c1C(=O)NC1CC1` (stereo not drawn) [compound 164, 4-[7-(3-cyanocyclobutoxy)imidazo [1,2-a]pyridin-3-yl]-N-cyclopropyl-2-(difluoromethoxy)-6-methoxy-benzamide], for which the IC50 was 0.01 to 10 nM against SIK2, 0.01 to 10 nM against SIK3 and 10 to 100 nM at SIK1.

On to `COc1cc(-c2cnc3cc(OCc4ccnn4C)ccn23)cnc1C(=O)NCC(F)(F)F` [compound 262, 3-methoxy-5-[7-[(2-methylpyrazol-3-yl)methoxy]imidazo[1,2-a]pyridin-3-yl]-N-(2,2,2-trifluoroethyl)pyridine-2-carboxamide], for which the IC50 at SIK2 was 100 to 500 nM; on SIK3, 10 to 100 nM; at SIK1, greater than 500 nM.

Take `COc1cc(-c2cnc3cc(OCCN4C(C)CCCC4C)ccn23)cc(OC(F)F)c1C(=O)NC1CC1` (stereo not drawn) [compound 294, N-cyclopropyl-2-(difluoromethoxy)-4-[7-[2-(2,6-dimethyl-1-piperidyl)ethoxy]imidazo [1,2-a]pyridin-3-yl]-6-methoxy-benzamide]: the IC50 against SIK2 is 0.01 to 10 nM; at SIK3, 0.01 to 10 nM; against SIK1, 10 to 100 nM.

For `COc1cc(-c2cnc3cc(OCCNC(C)=O)ccn23)cc(OC(F)F)c1C(=O)NC1CC1` [compound 27, 4-[7-(2-acetamidoethoxy)imidazo [1,2-a]pyridin-3-yl]-N-cyclopropyl-2-(difluoromethoxy)-6-methoxy-benzamide], the IC50 against SIK2, at SIK3 and on SIK1 was 0.01 to 10 nM each time.

For `COCC(C)(C)Oc1ccn2c(-c3cc(OC)c(C(=O)NC4CC4)c(OC(F)F)c3)cnc2c1` [Cpd 260, N-cyclopropyl-2-(difluoromethoxy)-6-methoxy-4-[7-(2-methoxy-1,1-dimethyl-ethoxy)imidazo[1,2-a]pyridin-3-yl]benzamide], the values for the IC50 against SIK2, against SIK3 and against SIK1 were greater than 500 nM, 10 to 100 nM and greater than 500 nM, respectively.

For the compound `COc1cc(-c2cnc3cc(OCc4ccccn4)ccn23)cc(OC(F)F)c1C(=O)NC1CC1` [compound 105, N-cyclopropyl-2-(difluoromethoxy)-6-methoxy-4-[7-(2-pyridylmethoxy)imidazo [1,2-a]pyridin-3-yl]benzamide], the figures for the IC50 at SIK2, at SIK3 and against SIK1 were 0.01 to 10 nM, 0.01 to 10 nM and 10 to 100 nM, respectively.

Consider `COc1cc(-c2cnc3cc(OCCN4CC(F)(F)C4)ccn23)cc(OC(F)F)c1C(=O)NC1CC1` [compound 186, N-cyclopropyl-4-[7-[2-(3,3-difluoroazetidin-1-yl)ethoxy]imidazo[1,2-a]pyridin-3-yl]-2-(difluoromethoxy)-6-methoxy-benzamide], for which the results for the IC50 against SIK2, at SIK3 and at SIK1 were 0.01 to 10 nM, 0.01 to 10 nM and 10 to 100 nM, respectively.

Consider `COc1cc(-c2cnc3cc(OCCN4CCOCC4C)ccn23)cc(OC(F)F)c1C(=O)NC1CC1` (stereo not drawn) [compound 232, N-cyclopropyl-2-(difluoromethoxy)-6-methoxy-4-[7-[2-(3-methylmorpholin-4-yl)ethoxy]imidazo [1,2-a]pyridin-3-yl]benzamide], for which the IC50 against SIK2 lay in the range of 0.01 to 10 nM; at SIK3, 0.01 to 10 nM; on SIK1, 10 to 100 nM.

Take `COc1cc(-c2cnc3cc(OCC4CN(C)C(=O)O4)ccn23)cc(OC(F)F)c1C(=O)NC1CC1` (stereo not drawn) [compound 228, N-cyclopropyl-2-(difluoromethoxy)-6-methoxy-4-[7-[(3-methyl-2-oxo-oxazolidin-5-yl)methoxy]imidazo[1,2-a]pyridin-3-yl]benzamide]: the IC50 against SIK2, against SIK3 and against SIK1 was 0.01 to 10 nM in each case.

Take `COc1cc(-c2cnc3cc(OC[C@H]4CCCN(C5COC5)C4)ccn23)cc(OC(F)F)c1C(=O)NC1CC1` [compound 318, N-cyclopropyl-2-(difluoromethoxy)-6-methoxy-4-[7-[[(3S)-1-(oxetan-3-yl)-3-piperidyl]methoxy]imidazo[1,2-a]pyridin-3-yl]benzamide]: the IC50 against SIK2, against SIK3 and on SIK1 was 0.01 to 10 nM each time.

For `COc1cc(-c2cnc3cc(OC[C@H]4CCN(C5COC5)C4)ccn23)cc(OC(F)F)c1C(=O)NC1CC1` [compound 317, N-cyclopropyl-2-(difluoromethoxy)-6-methoxy-4-[7-[[(3S)-1-(oxetan-3-yl)pyrrolidin-3-yl]methoxy]imidazo[1,2-a]pyridin-3-yl]benzamide], the IC50 on SIK2 was 0.01 to 10 nM; at SIK3 it was 0.01 to 10 nM; against SIK1 it was 10 to 100 nM.

Take `COC(=O)C1CN(CCOc2ccn3c(-c4cc(OC)c(C(=O)NC5CC5)c(OC(F)F)c4)cnc3c2)C1` [compound 393, methyl 1-[2-[3-[4-(cyclopropylcarbamoyl)-3-(difluoromethoxy)-5-methoxy-phenyl]imidazo[1,2-a]pyridin-7-yl]oxyethyl]azetidine-3-carboxylate]: the IC50 at SIK2 is 0.01 to 10 nM; against SIK3, 0.01 to 10 nM; against SIK1 it was 10 to 100 nM.

For `COc1cc(-c2cnc3cc(OCC4CC4)ccn23)cc(OC(F)F)c1C(=O)NC1CC1` [compound 96, N-cyclopropyl-4-[7-(cyclopropylmethoxy)imidazo[1,2-a]pyridin-3-yl]-2-(difluoromethoxy)-6-methoxy-benzamide], the IC50 on SIK2 was 0.01 to 10 nM; against SIK3, 0.01 to 10 nM; on SIK1, 10 to 100 nM.

With `COc1cc(-c2cnc3cc(OCC4CCCCN4)ccn23)cc(OC(F)F)c1C(=O)NC1CC1` (stereo not drawn) [compound 119, N-cyclopropyl-2-(difluoromethoxy)-6-methoxy-4-[7-(2-piperidylmethoxy)imidazo[1,2-a]pyridin-3-yl]benzamide], the results for the IC50 against SIK2, on SIK3 and against SIK1 were 0.01 to 10 nM, 0.01 to 10 nM and 10 to 100 nM, respectively.

Take `COc1cc(-c2cnc3cc(OC4CCOCC4)ccn23)cc(OC(F)F)c1C(=O)NC1CC1` [compound 1, N-cyclopropyl-2-(difluoromethoxy)-6-methoxy-4-(7-tetrahydropyran-4-yloxyimidazo[1,2-a]pyridin-3-yl)benzamide]: the IC50 against SIK2 is 100 to 500 nM; against SIK3, 0.01 to 10 nM; against SIK1 it was 100 to 500 nM.

For the compound `COc1cc(-c2cnc3cc(OCC4CCCO4)ccn23)cc(OC(F)F)c1C(=O)NC1CC1` (stereo not drawn) [compound 93, N-cyclopropyl-2-(difluoromethoxy)-6-methoxy-4-[7-(tetrahydrofuran-2-ylmethoxy)imidazo[1,2-a]pyridin-3-yl]benzamide], the figures for the IC50 against SIK2, on SIK3 and against SIK1 were 0.01 to 10 nM, 0.01 to 10 nM and 10 to 100 nM, respectively.

In the case of `COc1cc(-c2cnc3cc(OCC4(C)CC4)ccn23)cc(OC(F)F)c1C(=O)NC1CC1` [compound 97, N-cyclopropyl-2-(difluoromethoxy)-6-methoxy-4-[7-[(1-methylcyclopropyl)methoxy]imidazo[1,2-a]pyridin-3-yl]benzamide], the IC50 on SIK2 lay within 0.01 to 10 nM; on SIK3, 0.01 to 10 nM; against SIK1, 10 to 100 nM.

On to `COc1cc(-c2cnc3cc(OCCN(C)C)ccn23)cc(F)c1C(=O)NC1CC1` [compound 51, N-cyclopropyl-4-[7-[2-(dimethylamino)ethoxy]imidazo[1,2-a]pyridin-3-yl]-2-fluoro-6-methoxy-benzamide], for which the IC50 on SIK2 was 10 to 100 nM; at SIK3 it was 10 to 100 nM; against SIK1 it was greater than 500 nM.

Usually IC50 stands for the concentration that inhibits the measured activity by half.
